What was measured:
rat [1] = conditions: Sub-acute repeat dose toxicity; sprague dawley; Oral; Gavage/Intubation; dose end: 9 day; group: systemic; systemic / in life observation / body weight / body weight gain + systemic / in life observation / food consumption / food consumption
dog [2] = conditions: Subchronic oral toxicity in nonrodent, beagle, Gavage/Intubation, dose end: 90 day, group: systemic
dog [3] = conditions: Sub-acute repeat dose toxicity, beagle, Oral, Gavage/Intubation, dose end: 5 day, group: systemic
rat [4] = conditions: Sub-acute repeat dose toxicity, sprague dawley, Oral, Gavage/Intubation, dose end: 29 day, group: systemic
dog [5] = conditions: Sub-acute repeat dose toxicity; beagle; Oral; Gavage/Intubation; dose end: 29 day; group: systemic; systemic / clinical chemistry / hepatic mixed function oxidase (mfo) assay / hepatic mixed function oxidase (mfo) assay + systemic / in life…
rabbit = conditions: Sub-acute repeat dose toxicity; new zealand white; Oral; Gavage/Intubation; dose end: 5 day; group: systemic; systemic / in life observation / body weight / body weight + systemic / in life observation / clinical signs / altered breathing rate + …
dog [6] = conditions: Sub-acute repeat dose toxicity; beagle; Oral; Gavage/Intubation; dose end: 5 day; group: systemic; systemic / in life observation / clinical signs / abnormal feces + systemic / in life observation / clinical signs / emesis
[7] = systemic / clinical chemistry / cholesterol / cholesterol + systemic / organ weight / liver / absolute + systemic / pathology microscopic / …
[8] = systemic / in life observation / clinical signs / abnormal feces + systemic / organ weight / liver / absolute + systemic / pathology …
[9] = systemic / in life observation / clinical signs / abnormal feces
[10] = systemic / in life observation / clinical signs / abnormal feces + systemic / in life observation / clinical signs / emesis
[11] = systemic / clinical chemistry / 5' nucleotidase / 5' nucleotidase + systemic / clinical chemistry / albumin / albumin + systemic / clinical …

NC(=O)N(O)[C@@H]1C=C[C@H](Oc2cccc(Oc3ccc(F)cc3)c2)C1
LEL (rat [1]): 400 mg/kg/day
LOAEL (rat [1]): > 400 mg/kg/day
NEL (rat [1]): 200 mg/kg/day
NOAEL (rat [1]): ≥ 400 mg/kg/day
NEL (dog [2]; [7]): 5 mg/kg/day
LOAEL (dog [2]; [8]): > 125 mg/kg/day
NOAEL (dog [2]; [8]): ≥ 125 mg/kg/day
LEL (dog [2]; systemic / organ weight / liver / absolute): 25 mg/kg/day
LEL (dog [3]; [9]): 5 mg/kg/day
NEL (dog [3]; [9]): < 5 mg/kg/day
LOAEL (dog [3]; [10]): > 125 mg/kg/day
NOAEL (dog [3]; [10]): ≥ 125 mg/kg/day
LOAEL (rat [4]; [11]): > 400 mg/kg/day
NEL (rat [4]; [11]): 10 mg/kg/day
NOAEL (rat [4]; [11]): ≥ 400 mg/kg/day
LEL (rat [4]; [7]): 40 mg/kg/day
LEL (dog [5]): 125 mg/kg/day
LOAEL (dog [5]): > 125 mg/kg/day
NEL (dog [5]): 25 mg/kg/day
NOAEL (dog [5]): ≥ 125 mg/kg/day
LEL (rabbit): 400 mg/kg/day
LOAEL (rabbit): > 400 mg/kg/day
NEL (rabbit): 40 mg/kg/day
NOAEL (rabbit): ≥ 400 mg/kg/day
LEL (dog [6]): 250 mg/kg/day
LOAEL (dog [6]): > 500 mg/kg/day
NEL (dog [6]): < 250 mg/kg/day
NOAEL (dog [6]): ≥ 500 mg/kg/day

Reference: EPA's ToxRefDB 2
